In paper PMC9234961 (Journal of Medicinal Chemistry, 2022):

Assays:
kinases (468) [1] = target: kinases (468) (Homo sapiens, UniProt O60674); details: JAK2(JH1domain-catalytic); 1000 nM
kinases (468) [2] = target: kinases (468) (Homo sapiens, UniProt O96017); details: CHEK2; 1000 nM
kinases (468) [3] = target: kinases (468) (Homo sapiens, UniProt P06241); details: FYN; 1000 nM
kinases (468) [4] = target: kinases (468) (Homo sapiens, UniProt P15056, V600E); details: BRAF(V600E); 1000 nM
kinases (468) [5] = target: kinases (468) (Homo sapiens, UniProt P21709); details: EPHA1; 1000 nM
kinases (468) [6] = target: kinases (468) (Homo sapiens, UniProt P22694); details: PKAC-beta (PRKACB); 1000 nM
kinases (468) [7] = target: kinases (468) (Homo sapiens, UniProt P25098); details: GRK2 (ADRBK1); 1000 nM
kinases (468) [8] = target: kinases (468) (Homo sapiens, UniProt P42345); details: MTOR; 1000 nM
kinases (468) [9] = target: kinases (468) (Homo sapiens, UniProt P42681); details: kinase TXK (Entrez TXK); compound concentration 1000 nM
kinases (468) [10] = target: kinases (468) (Homo sapiens, UniProt Q6XUX3); details: kinase RIPK5 (Entrez DSTYK); compound concentration 1000 nM
kinases (468) (Homo sapiens, UniProt Q6XUX3), sequence (Q6XUX3 whole entry): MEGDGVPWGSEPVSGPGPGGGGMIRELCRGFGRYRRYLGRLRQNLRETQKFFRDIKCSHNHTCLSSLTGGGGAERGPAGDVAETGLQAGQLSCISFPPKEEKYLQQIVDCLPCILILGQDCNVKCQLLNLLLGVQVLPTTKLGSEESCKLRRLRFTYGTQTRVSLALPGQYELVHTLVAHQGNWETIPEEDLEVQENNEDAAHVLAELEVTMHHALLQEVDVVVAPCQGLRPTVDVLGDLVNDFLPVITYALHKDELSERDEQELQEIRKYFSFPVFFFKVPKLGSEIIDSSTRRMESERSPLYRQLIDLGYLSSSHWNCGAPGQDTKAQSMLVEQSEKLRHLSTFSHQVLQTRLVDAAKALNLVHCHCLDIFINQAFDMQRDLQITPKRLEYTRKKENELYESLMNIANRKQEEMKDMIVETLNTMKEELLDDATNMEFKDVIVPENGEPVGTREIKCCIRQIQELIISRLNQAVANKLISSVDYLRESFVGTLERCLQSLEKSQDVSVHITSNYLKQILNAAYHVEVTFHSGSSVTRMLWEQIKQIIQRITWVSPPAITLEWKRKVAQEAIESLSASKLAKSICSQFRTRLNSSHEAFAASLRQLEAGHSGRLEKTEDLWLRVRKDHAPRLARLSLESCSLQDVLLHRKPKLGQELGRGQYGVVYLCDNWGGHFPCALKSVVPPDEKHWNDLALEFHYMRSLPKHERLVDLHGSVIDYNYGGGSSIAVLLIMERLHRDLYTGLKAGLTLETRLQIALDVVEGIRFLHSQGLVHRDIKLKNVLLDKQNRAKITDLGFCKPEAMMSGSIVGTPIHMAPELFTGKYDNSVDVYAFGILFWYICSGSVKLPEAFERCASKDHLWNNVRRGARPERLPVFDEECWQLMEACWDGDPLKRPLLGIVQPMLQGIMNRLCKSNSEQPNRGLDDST

kinases (468) [11] = target: kinases (468) (Homo sapiens, UniProt Q8WTQ7); details: GRK7; 1000 nM
kinases (468) (Homo sapiens, UniProt Q8WTQ7), sequence (Q8WTQ7 whole entry): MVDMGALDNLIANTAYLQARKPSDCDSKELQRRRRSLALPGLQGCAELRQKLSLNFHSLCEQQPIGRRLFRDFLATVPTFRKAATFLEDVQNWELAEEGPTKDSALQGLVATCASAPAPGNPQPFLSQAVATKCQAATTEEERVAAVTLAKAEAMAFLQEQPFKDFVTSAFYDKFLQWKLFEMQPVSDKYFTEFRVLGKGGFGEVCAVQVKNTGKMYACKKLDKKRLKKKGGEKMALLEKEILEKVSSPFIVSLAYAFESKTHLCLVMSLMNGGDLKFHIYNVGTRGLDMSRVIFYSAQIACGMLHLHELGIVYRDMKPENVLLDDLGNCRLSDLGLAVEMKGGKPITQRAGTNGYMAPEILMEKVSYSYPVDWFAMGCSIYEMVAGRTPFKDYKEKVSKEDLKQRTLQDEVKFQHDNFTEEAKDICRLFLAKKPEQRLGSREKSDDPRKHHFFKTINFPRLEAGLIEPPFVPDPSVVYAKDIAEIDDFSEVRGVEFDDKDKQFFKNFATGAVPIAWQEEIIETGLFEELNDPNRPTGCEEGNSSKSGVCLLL

kinases (468) [12] = target: kinases (468) (Homo sapiens, UniProt Q92630); details: DYRK2; 1000 nM
kinases (468) [13] = target: kinases (468) (Homo sapiens, UniProt Q96Q40); details: PFTAIRE2 (CDK15); 1000 nM
kinases (468) (Homo sapiens, UniProt Q96Q40), sequence (Q96Q40 whole entry): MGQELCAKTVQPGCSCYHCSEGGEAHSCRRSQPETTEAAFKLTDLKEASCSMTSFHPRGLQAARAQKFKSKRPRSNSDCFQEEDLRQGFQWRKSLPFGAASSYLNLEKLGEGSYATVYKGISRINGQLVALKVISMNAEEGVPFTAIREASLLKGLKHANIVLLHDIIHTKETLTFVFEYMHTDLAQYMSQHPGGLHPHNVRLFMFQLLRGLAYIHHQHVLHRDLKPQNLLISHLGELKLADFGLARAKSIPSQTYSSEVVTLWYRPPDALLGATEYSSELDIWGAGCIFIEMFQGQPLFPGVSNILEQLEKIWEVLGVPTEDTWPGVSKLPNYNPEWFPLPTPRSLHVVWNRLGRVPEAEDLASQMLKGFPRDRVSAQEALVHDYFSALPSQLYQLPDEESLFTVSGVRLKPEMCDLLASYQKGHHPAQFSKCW

kinases (468) [14] = target: kinases (468) (Homo sapiens, UniProt Q9NRP7); details: kinase STK36 (Entrez STK36); compound concentration 1000 nM
[15] = Microsomal clearance assay (RLM); format: in vitro ADME; details: rat liver microsomes, 1 μM compound
Protocol: 6. Supplementary experimental: in vitro DMPK assays
6.1 Microsomal clearance assay
Microsomal clearance was determined in female CD1 mice, female Sprague–Dawley rats, and mixed gender human liver microsomes obtained from BioIVT (Peterborough, U.K.) following incubation of 1 μM compound at 37 °C in 0.5 mg/mL microsomal protein, 3 mmol/L MgCl2, 1 mmol/L NADPH, 2.5 mmol/L and 10 mmol/L phosphate buffer (pH 7.4) (all purchased from Sigma-Aldrich, Gillingham, U.K). Reactions were started by addition of the cofactors following 10 min preincubation of microsomes with test compound and were terminated at −1, 0, 5, 10, 15, and 30 min with three volumes of ice-cold methanol containing internal standard. Samples were centrifuged at 2800g for 30 min at 4 °C and the supernatants analyzed.
Control incubations were prepared as above with omission of cofactors. Compound measurements were […]
separation with a 3 min gradient of 0.1% formic acid in methanol on a Kinetex C18, 50 × 2.1 mm 2.6 μm UPLC column (Phenomenex, Macclesfield, UK). […]

ADRB2 = target: T1, ADRB2 (Homo sapiens, UniProt P07550); assay: SAFETYScan GPCR cAMP, Antagonist; format: cell-based
T1 construct: expressed in transfected cells
T1 sequence (P07550 whole entry): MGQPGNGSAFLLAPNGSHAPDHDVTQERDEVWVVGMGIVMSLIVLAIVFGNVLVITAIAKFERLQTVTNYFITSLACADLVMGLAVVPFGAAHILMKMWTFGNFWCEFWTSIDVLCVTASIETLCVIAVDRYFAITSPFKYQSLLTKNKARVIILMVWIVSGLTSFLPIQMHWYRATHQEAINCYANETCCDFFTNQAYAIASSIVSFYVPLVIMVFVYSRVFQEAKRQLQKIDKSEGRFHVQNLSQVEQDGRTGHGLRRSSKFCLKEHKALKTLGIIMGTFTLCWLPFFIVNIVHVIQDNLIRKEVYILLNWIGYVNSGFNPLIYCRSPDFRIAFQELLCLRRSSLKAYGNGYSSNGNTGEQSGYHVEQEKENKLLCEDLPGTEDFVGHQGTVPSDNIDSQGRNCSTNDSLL
Source text: (§1) Supplement jm1c02175_si_002.xlsx, sheet "SAFETYScan" | column: RC50 (uM); Max Response

CHRM2 = target: T2, CHRM2 (Homo sapiens, UniProt P08172); assay: SAFETYScan GPCR cAMP, Antagonist; format: cell-based
T2 construct: expressed in transfected cells
T2 sequence (P08172 1-466): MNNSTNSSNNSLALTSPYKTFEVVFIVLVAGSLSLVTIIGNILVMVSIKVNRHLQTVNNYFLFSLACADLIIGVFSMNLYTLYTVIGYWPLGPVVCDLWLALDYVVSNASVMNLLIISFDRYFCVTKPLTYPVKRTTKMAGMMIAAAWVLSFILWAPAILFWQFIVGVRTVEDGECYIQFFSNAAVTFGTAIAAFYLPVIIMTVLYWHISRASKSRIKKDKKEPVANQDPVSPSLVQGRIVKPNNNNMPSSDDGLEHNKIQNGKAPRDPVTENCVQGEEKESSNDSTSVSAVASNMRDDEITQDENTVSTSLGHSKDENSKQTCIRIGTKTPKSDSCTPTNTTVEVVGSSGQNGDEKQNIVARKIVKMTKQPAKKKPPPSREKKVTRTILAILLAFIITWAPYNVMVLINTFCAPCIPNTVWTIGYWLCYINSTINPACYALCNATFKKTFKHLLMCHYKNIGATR
Source text: as §1

DRD2S = target: T3, DRD2S (Homo sapiens, UniProt P14416); assay: SAFETYScan GPCR cAMP, Antagonist; format: cell-based
T3 construct: expressed in transfected cells
T3 sequence (P14416 1-414 isoform P14416-2): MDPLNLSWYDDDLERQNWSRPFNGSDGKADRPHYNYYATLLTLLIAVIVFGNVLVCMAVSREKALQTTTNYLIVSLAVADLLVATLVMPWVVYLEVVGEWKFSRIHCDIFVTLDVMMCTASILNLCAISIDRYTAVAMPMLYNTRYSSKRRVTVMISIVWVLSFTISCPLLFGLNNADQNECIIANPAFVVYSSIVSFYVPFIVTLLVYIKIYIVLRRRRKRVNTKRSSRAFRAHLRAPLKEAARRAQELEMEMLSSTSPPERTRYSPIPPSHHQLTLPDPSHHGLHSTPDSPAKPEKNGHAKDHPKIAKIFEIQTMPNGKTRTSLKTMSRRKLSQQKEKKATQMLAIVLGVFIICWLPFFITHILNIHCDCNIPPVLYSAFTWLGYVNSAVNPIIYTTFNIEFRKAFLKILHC
Source text: as §1

HTR1A = target: T4, HTR1A (Homo sapiens, UniProt P08908); assay: SAFETYScan GPCR cAMP, Antagonist; format: cell-based
T4 construct: expressed in transfected cells
T4 sequence (P08908 1-422): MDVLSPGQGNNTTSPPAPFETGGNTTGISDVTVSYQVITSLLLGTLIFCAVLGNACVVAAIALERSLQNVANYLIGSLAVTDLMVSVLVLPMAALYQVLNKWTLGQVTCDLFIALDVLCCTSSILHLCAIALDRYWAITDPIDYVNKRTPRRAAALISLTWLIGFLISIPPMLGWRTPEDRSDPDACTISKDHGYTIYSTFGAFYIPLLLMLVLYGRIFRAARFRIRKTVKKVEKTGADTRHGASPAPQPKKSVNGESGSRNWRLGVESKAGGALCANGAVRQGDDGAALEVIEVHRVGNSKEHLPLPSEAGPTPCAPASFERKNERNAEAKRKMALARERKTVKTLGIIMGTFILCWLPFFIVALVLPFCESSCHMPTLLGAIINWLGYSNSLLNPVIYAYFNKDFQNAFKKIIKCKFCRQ
Source text: as §1

OPRD1 = OPRD1 (Homo sapiens, UniProt P41143); assay: SAFETYScan GPCR cAMP, Antagonist; format: cell-based
OPRD1, sequence (P41143 whole entry, species assumed): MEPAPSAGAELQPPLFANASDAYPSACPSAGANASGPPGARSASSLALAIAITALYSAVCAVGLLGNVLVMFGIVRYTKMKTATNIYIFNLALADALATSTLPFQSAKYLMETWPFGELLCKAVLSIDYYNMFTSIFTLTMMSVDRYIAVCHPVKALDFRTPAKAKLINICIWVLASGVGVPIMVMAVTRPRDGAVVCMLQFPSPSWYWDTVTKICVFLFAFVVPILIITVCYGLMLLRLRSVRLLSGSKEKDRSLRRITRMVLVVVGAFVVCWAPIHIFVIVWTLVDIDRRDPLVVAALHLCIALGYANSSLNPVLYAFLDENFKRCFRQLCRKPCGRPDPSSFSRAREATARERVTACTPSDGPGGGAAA
Source text: as §1

kinases (468) (Homo sapiens, UniProt O60674), sequence (O60674 whole entry): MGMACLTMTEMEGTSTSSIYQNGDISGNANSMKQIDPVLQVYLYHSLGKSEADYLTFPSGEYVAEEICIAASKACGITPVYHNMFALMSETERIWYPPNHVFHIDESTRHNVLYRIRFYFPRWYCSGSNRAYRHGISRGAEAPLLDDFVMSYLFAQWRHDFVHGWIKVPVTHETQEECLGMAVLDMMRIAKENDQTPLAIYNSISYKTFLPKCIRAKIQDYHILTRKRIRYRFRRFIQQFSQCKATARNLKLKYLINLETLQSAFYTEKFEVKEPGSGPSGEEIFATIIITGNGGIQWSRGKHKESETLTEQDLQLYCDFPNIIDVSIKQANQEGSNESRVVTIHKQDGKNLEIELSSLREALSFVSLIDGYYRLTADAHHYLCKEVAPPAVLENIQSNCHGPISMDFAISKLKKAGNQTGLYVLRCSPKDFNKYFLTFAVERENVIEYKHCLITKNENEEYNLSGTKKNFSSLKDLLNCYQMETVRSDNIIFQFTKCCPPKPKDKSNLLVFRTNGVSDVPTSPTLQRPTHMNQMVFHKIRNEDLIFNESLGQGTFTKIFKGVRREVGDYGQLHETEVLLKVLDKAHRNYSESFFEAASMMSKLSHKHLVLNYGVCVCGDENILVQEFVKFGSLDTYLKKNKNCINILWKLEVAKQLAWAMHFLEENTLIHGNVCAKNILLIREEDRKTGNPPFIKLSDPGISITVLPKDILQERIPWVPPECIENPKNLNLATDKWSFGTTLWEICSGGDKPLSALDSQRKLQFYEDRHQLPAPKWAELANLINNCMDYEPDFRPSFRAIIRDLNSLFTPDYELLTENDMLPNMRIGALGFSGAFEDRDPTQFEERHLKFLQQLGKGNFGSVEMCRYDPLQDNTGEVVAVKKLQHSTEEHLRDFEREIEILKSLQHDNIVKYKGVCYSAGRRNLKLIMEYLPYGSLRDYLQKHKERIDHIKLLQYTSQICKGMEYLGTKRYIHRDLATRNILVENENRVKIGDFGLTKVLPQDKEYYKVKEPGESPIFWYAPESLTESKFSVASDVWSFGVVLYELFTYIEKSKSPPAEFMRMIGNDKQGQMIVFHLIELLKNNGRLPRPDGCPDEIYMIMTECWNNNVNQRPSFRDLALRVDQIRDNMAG
kinases (468) (Homo sapiens, UniProt P15056, V600E), sequence (P15056 whole entry V600E): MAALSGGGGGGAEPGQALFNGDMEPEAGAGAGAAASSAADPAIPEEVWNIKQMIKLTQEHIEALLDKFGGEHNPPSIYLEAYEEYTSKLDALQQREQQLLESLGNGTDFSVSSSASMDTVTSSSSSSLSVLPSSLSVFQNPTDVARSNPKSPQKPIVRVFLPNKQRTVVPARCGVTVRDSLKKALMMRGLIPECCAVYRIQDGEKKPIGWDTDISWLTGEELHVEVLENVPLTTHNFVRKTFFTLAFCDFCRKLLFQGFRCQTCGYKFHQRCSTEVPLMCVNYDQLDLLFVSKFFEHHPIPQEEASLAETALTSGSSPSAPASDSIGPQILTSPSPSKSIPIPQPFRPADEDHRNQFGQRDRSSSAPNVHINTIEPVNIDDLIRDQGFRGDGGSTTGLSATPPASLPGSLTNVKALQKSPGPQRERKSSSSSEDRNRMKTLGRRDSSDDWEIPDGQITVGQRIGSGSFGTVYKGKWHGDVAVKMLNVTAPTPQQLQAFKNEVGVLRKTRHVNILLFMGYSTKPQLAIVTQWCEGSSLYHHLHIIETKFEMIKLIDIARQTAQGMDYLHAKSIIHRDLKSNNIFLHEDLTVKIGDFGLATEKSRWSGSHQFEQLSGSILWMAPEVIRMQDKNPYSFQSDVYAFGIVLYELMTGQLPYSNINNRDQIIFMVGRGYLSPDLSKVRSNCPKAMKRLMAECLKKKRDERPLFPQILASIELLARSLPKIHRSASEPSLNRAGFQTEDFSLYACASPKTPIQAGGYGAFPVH

## C[C@H]1C[C@@H](O)CN(c2ncc(Cl)c(Nc3ccc4c(c3)c3c(c(=O)n4C)OCC(F)(F)[C@H](C4CC4)N3)n2)C1 [CCT373566_9A]
Kinases (468) [1]
  Percent Control: 97%
Kinases (468) [2]
  Percent Control: 99%
Kinases (468) [3]
  Percent Control: 100%
Kinases (468) [4]
  Percent Control: 100%
Kinases (468) [5]
  Percent Control: 100%
Kinases (468) [6]
  Percent Control: 80%
Kinases (468) [7]
  Percent Control: 41%
Kinases (468) [8]
  Percent Control: 87%
Kinases (468) [9]
  Percent Control: 99%
Kinases (468) [10]
  Percent Control: 90%
Kinases (468) [11]
  Percent Control: 96%
Kinases (468) [12]
  Percent Control: 91%
Kinases (468) [13]
  Percent Control: 98%
Kinases (468) [14]
  Percent Control: 91%

## C[C@H]1C[C@@H](O)CN(c2ncc(Cl)c(Nc3ccc4c(c3)c3c(c(=O)n4C)OCC(F)(F)[C@H](C4CC4)N3)n2)C1 [12a CCT373566, (S)-10-((5-Chloro-2-((3R,5S)-3-hydroxy-5-methylpiperidin-1-yl)pyrimidin-4-yl)amino)-2-cyclopropyl-3,3-difluoro-7-methyl-1,2,3,4-tetrahydro-[1,4]oxazepino[2,3-c]quinolin-6(7H)-one]
[15]; female, Sprague-Dawley, pH 7.4
  microsomal CLint at 0.5 h, 1 µM: 3 µL/min/mg
[15]
  CLint (RLM): low clearance
ADRB2; read-out: Max Response
  Emax: 62.3%
ADRB2; read-out: RC50 (IC50)
  IC50: 1.74 µM
CHRM2; read-out: Max Response
  Emax: 30.1%
CHRM2; read-out: RC50 (IC50)
  IC50: > 10 µM
DRD2S; read-out: Max Response
  Emax: 28.7%
DRD2S; read-out: RC50 (IC50)
  IC50: > 10 µM
HTR1A; read-out: Max Response
  Emax: 13.8%
HTR1A; read-out: RC50 (IC50)
  IC50: > 10 µM
OPRD1; read-out: Max Response
  Emax: 0%
OPRD1; read-out: RC50 (IC50)
  IC50: > 10 µM
